Source: patent US12352767B2, “Method of treating cognitive decline associated with neurological diseases based on a decrease in FLT4 expression or activity” (University of Virginia Patent Foundation, priority 2018, dated 2025)
“Also recorded” adds a separate entry of the source.

Tests used:
[1] = test system: mice; experiment: Contextual fear conditioning test; format: in vivo; conditions: Visudyne/photoconversion twice
Procedure: This behavioral test was performed following a published protocol^53 with modifications. In this associative learning task, mice are presented with a neutral conditioned cue stimulus that is paired with an aversive unconditioned stimulus in a particular context. The mice learn that the chamber context and the cue stimulus predict the aversive stimulus and elicit a specific behavioral response, namely freezing. Mice were brought into the testing room to acclimate for at least 30 minutes before testing. For the test, we used two Habitest® chambers (Coulbourn Instruments, Allentown, PA, USA) with stainless grid floors attached to a shock generator for foot shock delivery and dimly illuminated with a white fluorescent light bulb. The chambers were cleaned and made odor-free before starting the experiment and between each session (or each mouse). The fear conditioning test was conducted over 2 days. […] On day 2, mice were tested and scored for conditioned fear to the training context for 3 minutes (context test), but with no presentation of the cue stimulus. […] Mice behaviour was recorded by a digital video camera mounted above the conditioning chamber and freezing was manually scored by a blinded experimenter using the Etholog V2.2 software. Parameters analysed included the percentage of time freezing during the 3 minutes of the context test and the last 3 minutes of the cued test.

[2] = test system: J20 mice; experiment: Amyloid pathology in meninges and hippocampus of J20 mice (Aβ immunostaining); format: in vivo
Procedure: Male or female wild-type mice (C57BL/6J background) were either bred in-house, purchased from the Jackson Laboratory (Bar Harbor, Maine, USA) or provided by the National Institutes of Health/National Institute on Aging (Bethesda, MD, USA). All mice were maintained in the animal facility for habituation for at least 1 week prior to the start of the manipulation/experimentation. C57BL/6J wild-type mice were tested at 2-3, 12-14 and 20-24 months of age. Male hemizygous B6.Cg-Tg(PDGFB-APPSwInd)20Lms/2Mmjax (J20, JAX stock #006293) and B6.Cg-Tg(APPSwFILon,PSEN1*M146L*L286V)6799Vas/Mmjax (5×FAD, JAX stock #008730) were purchased from the Jackson Laboratory and bred in-house on a C57BL/6J background. […] 5×FAD hemizygous mice overexpress the transgene constructs under neural-specific elements of the mouse thymocyte differentiation antigen 1 promoter and present accelerated accumulation of Aβ42 and deposition of amyloid and gliosis in the brain starting at 2 months of age, with dramatic amyloid plaque load without major behavioral deficits at 5 months^45. In-house bred male transgene carriers and non-carrier (WT) littermates were used at different ages that are indicated throughout the manuscript. […]

[3] = test system: intracranial vasculature, blood-brain barrier, brain ventricles; conditions: mouse, in vivo
Procedure: All MRI acquisitions were performed at the University of Virginia Molecular Imaging Core facilities in a 7T Clinscan system (Bruker, Ettlingen, Germany) equipped with a 30 mm diameter cylindrical RF Coil. For analysis of mouse intracranial vascular structure, mice were placed in the 7T Clinscan system under light anaesthesia with isoflurane (1-1.25% in oxygen). Structural imaging data of intracranial arteries (magnetic resonance angiography or MRA) was acquired with a high-resolution 3D isotropic Spiral Cine Phase Contrast (SCPC) technique: repetition time (TR)=15 ms, echo time (TE)=0.63 ms, field of view (FOV)=25×25 mm, slice thickness=0.01 mm, number of sagittal slices=160, number of averages per phase-encode step (NEX)=1 and flip angle (FA)=20°. Total imaging time was of about 15 min per mouse. Structural imaging data of intracranial veins (magnetic resonance venography or MRV) was acquired with a high-resolution 3D isotropic SCPC technique with a saturation band positioned caudal to the slices, in order to saturate the arterial signal: TR=17 ms, TE=4.54 ms, FOV=17×26 mm, slice thickness=0.3 mm, number of sagittal slices=160, NEX=2 and FA=90°. Total imaging time was of about 13 min per mouse. Vascular volume and diameters were quantified using semi-automatic segmentation tools provided in the OsiriX software. For analysis of mouse brain ventricular volume, mice were placed in the 7T Clinscan system under light anaesthesia with isoflurane and structural imaging data were acquired with a high-resolution 3D isotropic T2-weighted SPACE technique with the following parameters: TR=3000 ms, TE=139 ms, FOV=26×20.5 mm, slice thickness=0.13 mm, number of slices=160 and NEX=3, requiring a total acquisition time of about 16 min per mouse. Ventricular volumes were quantified using semi-automatic segmentation tools provided in the OsiriX software.
Initially, a pre-contrast image was acquired after placing the mice in the 7T Clinscan system under light anaesthesia with isoflurane. Gadobenate dimeglumine (gadolinium or Gd, MultiHance, Bracco Diagnostics, Princeton, New Jersey) at 0.3 mmol/kg was then injected intravenously (i.v.), through a catheter inserted in the tail vein. To assess the rate of influx of a CSF tracer into the brain, mice were anaesthetized by i.p. injection of ketamine and xylazine in saline and an i.c.m. injection of 5 μL of Gd at a concentration of 25 mM in saline was performed. […] The mice were placed in the MRI apparatus and maintained under light anaesthesia with isoflurane. For MRI acquisition, maximum gradient strength of the system was 500 mT/m and the peak slew rate achievable was 6667 mT/m/ms. After i.v. injection of Gd or 10 min after injecting gadolinium into the CSF, a series of post-contrast T1-weighted images were taken through the head with the following parameters: TR=500 ms, TE=11 ms, FOV=20×20 mm with a 192×192 matrix (104 μm×104 μm resolution), slice thickness=0.7 mm, number of slices=22 and NEX=2. For i.v. Gd injection 5 post-contrast images were acquired requiring about 16 min per mouse (each sequence taken every 194 s). For brain influx of Gd injected into the CSF, the total acquisition time was of about 52 min per mouse (194 s×16 sequences per mouse), meaning that T1 images were acquired for approximately 1 hour post-injection.

verteporfin [Visudyne]
CFC context test ([1]; adult mice): no differences between groups | CFC cued test ([1]; vs control groups): statistically significant difference | Aβ aggregates / amyloid deposition in the meninges ([2]; Visudyne/photoconversion every 3 weeks for 3 months): Aβ aggregates had formed in the meninges; also recorded: marked amyloid deposition | Aβ plaque load (coverage) in the hippocampi ([2]; Visudyne/photoconversion for 3 months vs vehicle): significantly increased; also recorded: statistically significant increase in coverage | arterial vessel volume [3]: no significant changes between groups | basilar artery diameter [3]: no significant changes between groups | structure of major intracranial veins and arteries [3]: not altered | superior sagittal sinus (SSS) diameter [3]: no significant changes between groups | venous vessel volume [3]: no significant changes between groups
